Data as given in paper PMC7470104, “Discovery of 3,6-disubstituted pyridazines as a novel class of anticancer agents targeting cyclin-dependent kinase 2: synthesis, biological evaluation and in silico insights” (Journal of Enzyme Inhibition and Medicinal Chemistry, 2020).
Where two headings read alike, the source gives them in different places.

Tests used:
[1] = tested on: T-47D cells; assay: SRB anti-proliferative assay, T-47D; format: cell-based; conditions: Homo sapiens, T47D, 48 h, read-out: IC50 T-47D
From the text: (§1) MDA-MB-231 cell line is classified as a triple-negative/basal-like cell line, which is hormone (estrogen and progesterone)-receptor negative and HER2 negative, whereas T-47D is considered as hormone-receptor positive and HER2 negative breast cancer cell line.
(§2) 2. Anti-proliferative activities
(§3) The three examined human cancer cell lines; T-47D (breast cancer), MDA-MB-231 (breast carcinoma) and SKOV-3 (ovarian cancer), as well as the non-tumorigenic human breast cell line (MCF-10A) have been obtained from American Type Culture Collection (ATCC). The cells were maintained in Dulbecco's modified Eagle's medium (DMEM) supplemented with 10% heat inactivated fetal calf serum (GIBCO), penicillin (100 U/ml) and streptomycin (100 µg/ml) at 37 °C in humidified atmosphere containing 5% CO2. Cells at a concentration of 0.50 x 106 were grown in a 25 cm2 flask in 5 ml of culture medium.
(§4) The anti-proliferative activity of the tested pyridazines 11a-r was measured in vitro using the Sulfo-Rhodamine-B stain (SRB) assay. Briefly, Cells were inoculated in 96-well microtiter plate (5X104 cells/ well) for 24 h before treatment with the tested pyridazines to allow attachment of cell to the wall of the plate. Tested pyridazines were dissolved in DMSO at 1 mg/ml immediately before use and diluted to the appropriate volume just before addition to the cell culture. Different concentrations of tested pyridazines and staurosporine were added to the cells (three wells were prepared for each individual dose). Cells were incubated with the pyridazines for 48 h at 37°C and in atmosphere of 5% CO2. After 48 h cells were fixed, washed, and stained for 30 min with 0.4% (w/v) SRB dissolved in 1% acetic acid. Unbound dye was removed by four washes with 1% acetic acid, and attached stain was recovered with Tris-EDTA buffer. Color intensity was measured in an ELISA reader. The relation between percent of surviving fraction and drug concentration is plotted to get the survival curve for each cell line. The concentration required for 50% inhibition of cell viability (IC50) was calculated. […]

[2] = tested on: MDA-MB-231 cells; assay: SRB anti-proliferative assay, MDA-MB-231; format: cell-based; conditions: Homo sapiens, read-out: IC50 MDA-MB-231
From the text: as §1, §2, §3, §4

[3] = target: CDK2/CyclinA2 (Homo sapiens, UniProt P24941); assay: In vitro CDK2 kinase assay (CDK2/CyclinA2 Kinase Enzyme System)
From the text: CDK Kinase Inhibitory Activity

[4] = tested on: MDA-MB-231 cells; assay: Annexin V-FITC/PI apoptosis assay, MDA-MB-231; format: cell-based, human; conditions: MDA-MB-231, treated at IC50, 48 h; for Annexin V+ cells, late apoptotic phase (upper right quadrant): control 0.24%; for Annexin V+ cells, early apoptotic phase (lower right quadrant): control 0.56%
Experimental: (§5) Both T-47D and MDA-MB-231 cells were treated with pyridazines 11l and 11m at their IC50s for 48 h. The obtained results have been depicted in Figures 4–6.
(§6) 4. Annexin V-FITC Apoptosis Assay
(§7) Phosphatidylserine externalization was assayed using Annexin V-FITC/PI apoptosis detection kit (BD Biosciences, USA) according to the manufacturer’s instructions. Breast cancer T-47D and MDA-MB-231 cells were cultured to a monolayer then treated with pyridazines 11l and 11m at their IC50 concentration. Briefly, cells were then harvested via trypsinization, and rinsed twice in PBS followed by binding buffer. Moreover, cells were re-suspended in 100 μL of binding buffer with the addition of 1 μL of FITC-Annexin V followed by an incubation period of 30 min at 4 °C. Cells were then rinsed in binding buffer and resuspended in 150 μL of binding buffer with the addition of 1 μL of DAPI (1 μg/μL in PBS). Cells were then analyzed using the flow cytometer BD FACS Canto II and the results were interpreted with FlowJo7.6.4 software (Tree Star, Ashland, OR, USA). […]
(§8) Data are presented as means ± S.D. Individual groups were compared using the two-tailed independent Student’s t-test. Multiple group comparisons were carried out using one-way analysis of variance (ANOVA) followed by the Tukey–Kramer test for post-hoc analysis. Statistical significance was accepted at a level of p < 0.05. All statistical analyses were performed using GraphPad InStat software, version 3.05 (GraphPad Software, Inc., La Jolla, CA, USA). Graphs were sketched using GraphPad Prism software, version 5.00 (GraphPad Software, Inc., La Jolla, CA, USA).

[5] = tested on: T-47D cells; assay: Annexin V-FITC/PI apoptosis assay, T-47D; format: cell-based, human; conditions: treated at IC50, 48 h; for Annexin V+ cells, late apoptotic phase (upper right quadrant): control 0.19%; for Annexin V+ cells, early apoptotic phase (lower right quadrant): control […]
Experimental: as §5, §6, §7, §8

[6] = tested on: T-47D cells; assay: Cell cycle analysis by flow cytometry, T-47D; format: cell-based, human; conditions: treated at IC50, 24 h, vs untreated control
From the text: (§9) In this study, the efficient anti-proliferative activities of target pyridazines 11a-r towards breast cancer cell lines promoted us to explore and get insights into the plausible cellular mechanisms for these small molecules. To this end, we decided to determine if the target pyridazines exerted their cytotoxic activity through alteration in cell cycle progression and/or induction of apoptosis in both breast cancer T-47D and MDA-MB-231 cells. As a reliable tool, the flow cytometric analysis was utilised to inspect the cell cycle distribution after treatment of T-47D and MDA-MB-231 cells with IC50s of pyridazines 11l and 11m; […]
as §2
The three examined human cancer cell lines; T-47D (breast cancer), MDA-MB-231 (breast carcinoma) and SKOV-3 (ovarian cancer), as well as the non-tumorigenic human breast cell line (MCF-10A) have been obtained from American Type Culture Collection (ATCC). The cells were maintained in Dulbecco's modified Eagle's medium (DMEM) supplemented with 10% heat inactivated fetal calf serum (GIBCO), penicillin (100 U/ml) and streptomycin (100 µg/ml) at 37 °C in humidified atmosphere containing 5% CO2. Cells at a concentration of 0.50 x 106 were grown in a 25 cm2 flask in 5 ml of culture medium. […]
Tested pyridazines were dissolved in […]
The relation between percent of surviving fraction and drug concentration is plotted to get the survival curve for each cell line. The concentration required for 50% inhibition of cell viability (IC50) was calculated.
Breast cancer T-47D and MDA-MB-231 cells were treated with pyridazines 11l and 11m for 24 h (at their IC50 concentration), and then cells were washed twice with ice-cold phosphate buffered saline (PBS). Subsequently, the treated cells were collected by centrifugation, fixed in ice-cold 70% (v/v) ethanol, washed with PBS, re-suspended with 100 μg/mL RNase, stained with 40 μg/mL PI, and analyzed by flow cytometry using FACS Calibur (Becton Dickinson, BD, Franklin Lakes, NJ, USA). The cell cycle distributions were calculated using CellQuest software 5.1 (Becton Dickinson).

[7] = tested on: MCF-10A cells; assay: MTT cytotoxicity towards non-tumorigenic breast cells; format: cell-based, human; conditions: for IC50: read-out: IC50 MCF-10A
[8] = tested on: MDA-MB-231 cells; assay: Cell cycle analysis by flow cytometry, MDA-MB-231; format: cell-based, human; conditions: MDA-MB-231, treated at IC50, 24 h, vs untreated control
From the text: as §9, §2, §3
The anti-proliferative activity of the tested pyridazines 11a-r was measured in vitro using the Sulfo-Rhodamine-B stain (SRB) assay. Briefly, Cells were inoculated in 96-well microtiter plate (5X104 cells/ well) for 24 h before treatment with the tested pyridazines to allow attachment of cell to the wall of the plate. Tested pyridazines were dissolved in DMSO at 1 mg/ml immediately before use and diluted to the appropriate volume just before addition to the cell culture. Different concentrations of tested pyridazines and staurosporine were added to the cells (three wells were prepared for each individual dose). Cells were incubated with the pyridazines for 48 h at 37°C and in atmosphere of 5% CO2. After 48 h cells were fixed, washed, and stained for 30 min with 0.4% (w/v) SRB dissolved in 1% acetic acid. Unbound dye was removed by four washes with 1% acetic acid, and attached stain was recovered with Tris-EDTA buffer. Color intensity was measured in an ELISA reader. The relation between percent of surviving fraction and drug concentration is plotted to get the survival curve for each cell line. The concentration required for 50% inhibition of cell viability (IC50) was calculated.
Breast cancer T-47D and MDA-MB-231 cells were treated with pyridazines 11l and 11m for 24 h (at their IC50 concentration), and then cells were washed twice with ice-cold phosphate buffered saline (PBS). […]

[9] = tested on: human colon cancer HT-29 cell line; set-up: method as in PMID 23307426; conditions: in words; cited from earlier work
[10] = tested on: VEGFR-2; set-up: method as in PMID 31852269; conditions: in words; cited from earlier work
[11] = SRB assay, breast cancer T-47D, mean ± SD of three experiments
[12] = SRB assay, 48 h, breast cancer MDA-MB-231, mean ± SD of three experiments

CCCCNc1nnc(C(=O)NC2C3CC4CC(C3)CC2C4)cc1C(F)(F)F (stereo not shown) [11b]
melting point: 110 to 111 °C | IC50 [1, 11]: 1370 ± 40 nM

O=C(NC1C2CC3CC(C2)CC1C3)c1cc(C(F)(F)F)c(N2CCOCC2)nn1 (stereo not shown) [11d]
IC50 [2, 12]: 2180 ± 70 nM | melting point: 177 to 178 °C

O=C(NC1C2CC3CC(C2)CC1C3)c1cc(C(F)(F)F)c(NCc2ccccc2C(F)(F)F)nn1 (stereo not shown) [11e]
IC50 [1, 11]: 2620 ± 80 nM | IC50 [3]: 151 ± 6.16 nM

CC(C)(C)NC(=O)c1cc(C(F)(F)F)c(NC2CCCC2)nn1 [11f]
melting point: 62 to 63 °C | IC50 [1, 11]: 1940 ± 60 nM

CC(C)(C)NC(=O)c1cc(C(F)(F)F)c(N2CCOCC2)nn1 [11g]
melting point: 121 to 122 °C

CC(C)(C)NC(=O)c1cc(C(F)(F)F)c(NCc2ccccc2C(F)(F)F)nn1 [11h]
IC50 [2, 12]: 2440 ± 80 nM | melting point: 132 to 133 °C | IC50 [1, 11]: 1600 ± 50 nM | IC50 [3]: 43.8 ± 1.79 nM

CCCCNC(=O)c1cc(C(F)(F)F)c(N2CCOCC2)nn1 [11i]
IC50 [1, 11]: 440 ± 10 nM

O=C(NCC1CCOCC1)c1cc(C(F)(F)F)c(NCC2CC2)nn1 [11l]
IC50 [2, 12]: 1300 ± 40 nM | IC50 [1, 11]: 1570 ± 50 nM | Annexin V+ cells, late apoptotic phase (upper right quadrant) [4]: 23.60% | Annexin V+ cells, early apoptotic phase (lower right quadrant) [4]: 3.38% | Increase in Annexin V+ apoptotic cells (UR + LR) with respect to untreated control [5]: about 33 fold | Annexin V+ cells, late apoptotic phase (upper right quadrant) [5]: 27.2% | Annexin V+ cells, early apoptotic phase (lower right quadrant) [5]: 6.39% | IC50 [3]: 55.6 ± 2.27 nM | Increase in sub-G1 phase [6]: 13.8 fold | Rise in cell population of G2/M phase [6]: 2.7 fold | Mean tumour selectivity index (S. I.) ([7]; IC50 for MCF-10A / IC50 average for (T-47D and MDA-MB-231)): 13.7 | IC50 ([7]; MTT assay, non-tumorigenic human breast MCF-10A cells): 19600 ± 380 nM | Increase in cell population of G2/M phase [8]: 4.1 fold | Increase in sub-G1 phase [8]: 18.9 fold

O=C(NCC1CCOCC1)c1cc(C(F)(F)F)c(N2CCOCC2)nn1 [11m]
IC50 ([2]; MDA-MB-231, 48 h): 990 ± 30 nM | IC50 [1]: 430 ± 10 nM | Annexin V+ cells, late apoptotic phase (upper right quadrant) [4]: 15.56% | Annexin V+ cells, early apoptotic phase (lower right quadrant) [4]: 8.19% | Increase in Annexin V+ apoptotic cells (UR + LR) with respect to untreated control [5]: ~21 fold | Annexin V+ cells, late apoptotic phase (upper right quadrant) [5]: 10.34% | Annexin V+ cells, early apoptotic phase (lower right quadrant) [5]: 11.36% | Increase in sub-G1 phase [6]: 9.5 fold | Rise in cell population of G2/M phase [6]: 2.5 fold | IC50 ([7]; Homo sapiens, MCF-10A): 11400 ± 220 nM | Increase in cell population of G2/M phase [8]: 3.8 fold | Increase in sub-G1 phase [8]: 15.2 fold

O=C(NCc1ccccc1C(F)(F)F)c1cc(C(F)(F)F)c(NCCO)nn1 [11n]
IC50 [2, 12]: 2940 ± 90 nM

CCOC(=O)c1ccc(-c2ccc(N(C)C)nn2)cc1 [III]
Cytotoxic activity towards HT-29 [9]: excellent cytotoxic activity

COc1ccc(Nc2ccc(NC(=O)Nc3ccc(Cl)c(C(F)(F)F)c3)cc2)nn1 [IV]
IC50 VEGFR-2 [10]: nanomolar range
